# Data published in US20240166626A1, “Compounds and Methods for Preventing, Treating, or Ameliorating Airway Disease” (THOMAS JEFFERSON UNIVERSITY, priority 2021, published 2024).
# Biological target: FLAG-β2AR (Homo sapiens, UniProt P07550)
# Test: Receptor internalization, cell surface ELISA, HEK 293 FLAG-β2AR
# Format: cell-based
# Conditions: 10 μM DFPQ, ISO up to 60 min, FIG. 4A
# Procedure: FIGS. 4A-4F: DFPQ inhibits internalization of the β2AR and protects from agonist induced desensitization in cell and tissue models. FIG. 4A: Effect of DFPQ on agonist-promoted internalization of the β2AR. […] Cells were fixed and receptor surface expression was measured by ELISA. […] Cells were lysed and cAMP production was measured by ELISA. […] FIG. 4C: […] Airway contractility was measured by luminal area of bronchioles by microscopy at various times. FIG. 4D: […] HASM cells were scratched and incubated overnight in PDGF containing serum free media. Cells were imaged to evaluate migration into the scratched area. […] Cells were read every three minutes for 18 minutes on a PolarStar Optima plate reader (BMG) to establish peak signal. […] Luminescence was determined at room temperature (23-25° C.) on a PolarStar Optima plate reader (BMG). […] Relative assay bias was calculated from the ratio of normalized cAMP and arrestin recruitment responses. […] BRET was measured using a Tecan Infinite F500 microplate reader. […] Bound [35 S]GTPγS was collected by rapid filtration on GF/B filters, washed 4 times with 4 ml of cold GTPγS wash buffer and analyzed by liquid scintillation counting. […] Immunoprecipitated proteins were separated by SDS-PAGE and analyzed by western blot using a β2AR C-terminal tail or phospho-specific antibody. […] Band intensity was measured by densitometry using ImageJ. […]
# Chain of FLAG-β2AR (P07550 whole entry): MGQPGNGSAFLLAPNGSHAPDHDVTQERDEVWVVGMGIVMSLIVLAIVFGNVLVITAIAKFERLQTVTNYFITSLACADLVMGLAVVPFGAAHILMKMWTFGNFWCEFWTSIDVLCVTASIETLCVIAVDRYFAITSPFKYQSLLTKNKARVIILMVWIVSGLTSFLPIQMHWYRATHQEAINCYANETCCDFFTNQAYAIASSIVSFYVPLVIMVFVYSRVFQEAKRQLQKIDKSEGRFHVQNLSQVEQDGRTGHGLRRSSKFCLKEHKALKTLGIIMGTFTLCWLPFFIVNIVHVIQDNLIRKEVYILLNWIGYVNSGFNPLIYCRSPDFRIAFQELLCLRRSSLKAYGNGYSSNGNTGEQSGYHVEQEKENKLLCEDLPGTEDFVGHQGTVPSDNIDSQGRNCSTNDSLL
smiles,measurement,value
"Fc1ccc(Nc2nc(NC3CCCCC3)c3ccccc3n2)cc1F [DFPQ, N^4-cyclohexyl-N^2-(3,4-difluorophenyl)quinazoline-2,4-diamine]",agonist-induced internalization of the receptor,fully inhibited
